Laboratory results reported in patent US20260272879A1, “ANION-BINDING AROMATIC OLIGOAMIDE MACROCYCLES AND METHODS OF MAKING AND USING SAME” (The Research Foundation for The State University of New York, priority 2023, published 2026).

Columns and labels:
[1] = Isothermal titration calorimetry (ITC), PF6^−; type: binding; conditions: 25° C.
Description: (§1) Isothermal titration calorimetry (ITC) experiments were performed using a MicroCal VP-ITC. ITC experiments were conducted by adding ~1.5 mL of a solution containing c5a to the sample cell. Followed by titrating 10 μL aliquots of a solution containing the corresponding TBA·X salt (~10-14× concentration of c5a solution) from the syringe into the sample cell. Heats of dilution were obtained by titrating 10 μL aliquots of the TBA·X solution from the syringe into the sample cell in the absence of c5a. The heats of dilution were subtracted from the raw data. ITC data processing and curve fitting was done using the Origin program (MicroCal).
(§2) Two-step competition ITC experiments for determining the Ka of c5a and iodide. In CH3CN:CHCl3 (5:95, v/v), the binding affinity of c5a for I^− was too high to be determined with direct NMR or ITC titration. Instead, two-step competition ITC experiments with Cl^− as the competitor were performed.

[2] = Isothermal titration calorimetry (ITC), I^−; type: binding; conditions: 25° C.
Description: as §1, §2

[3] = 1H NMR titration, binding of iodide; conditions: DMSO-d6:CDCl3 (15:85, v/v), 25° C.
Description: (§3) ^1H NMR Titration methods. Titrations of 4c and 6c with anions as their tetra-n-butyl ammonium (TBA) salts were carried out by ^1H NMR (400 MHz on Bruker-400) at room temperature (298 K). 0.5 mL of receptor 4c (5.0 mM) or 6c (2.0 mM) were prepared in the rubber-cap NMR tubes. Aliquots of concentrated TBACl or TBAI solution (50 mM for the titration of 4c and 20 mM for the titration of 6c) containing the same amount of receptors were added into the receptor solution using 20 microliter pipette. An initial ^1H NMR spectrum was collected and additional spectra were obtained after each injection of TBACl or TBAI solution. All titration ^1H NMR spectra were stacked together and the chemical shifts of amide protons were then fitted to the proposed 1:1 binding model using BindFit v0.5 (http://app.supramolecular.org/bindfit/).
Anion binding with four amides, i.e., L1mer-L4mer, was studied in the mixed solvents of CD3CN/CDCl3 (1/9, v/v) by titrating an amide host with 0 to 5 equivalents of tetrabutylammonium (n-Bu4N^+) salt of the corresponding anion. The binding of chloride, bromide, iodide, and nitrate was examined with the four amides in CDCl3 containing 10% CD3CN. The titration data were collected by monitoring the changes in chemical shifts of the backbone amide protons and the inner aromatic protons with varying ratios of the anion guests. […]

[4] = 1H NMR titration, binding of chloride; conditions: DMSO-d6:CDCl3 (15:85, v/v), 25° C., NMR titration (protons a and b)
Description: as §3
(§4) Anion binding with four amides, i.e., L1mer-L4mer, was studied in the mixed solvents of CD3CN/CDCl3 (1/9, v/v) by titrating an amide host with 0 to 5 equivalents of tetrabutylammonium (n-Bu4N^+) salt of the corresponding anion. The binding of chloride, bromide, iodide, and nitrate was examined with the four amides in CDCl3 containing 10% CD3CN. The titration data were collected by monitoring the changes in chemical shifts of the backbone amide protons and the inner aromatic protons with varying ratios of the anion guests. Job plots indicate that these linear oligoamides and their anion guests bind in a 1:1 stoichiometry.
(§5) The binding of anions by macrocycle 7c was examined in CH3CN/CHCl3 (6/4, v/v) and in DMSO by titrating with various equivalents of the salts of chloride, iodide. nitrate, and dihydrogen phosphate, with tetrabutylammonium (n-Bu4N^+) being the counterion ion. Following the changes in the chemical shifts of backbone amide protons and “inner” aromatic protons allowed the determination of binding constants.
^1H NMR titration methods. Titrations of c5a and c5b with anions as their tetra-n-butylammonium (TBA), tetra-ethylammonium (TEA) and tetra-methylammonium (TMA) salts were carried out by ^1H NMR (400 MHz) at 25° C. […]

[5] = 1H NMR titration, binding of BF4^−; conditions: DMSO-d6:CDCl3 (15:85, v/v), 25° C., NMR titration (protons a and b)
Description: (§6) ^1H NMR titration methods. Titrations of c5a and c5b with anions as their tetra-n-butylammonium (TBA), tetra-ethylammonium (TEA) and tetra-methylammonium (TMA) salts were carried out by ^1H NMR (400 MHz) at 25° C. 0.4 mL of corresponding hosts solutions were prepared in the rubber-cap NMR tubes. Aliquots of concentrated guest solution containing hosts were added into the NMR tubes using 20 microliter pipette. An initial ^1H NMR spectrum was collected and additional spectra were obtained after each injection of guest solution. All titration ^1H NMR spectra were stacked together and the chemical shifts of the internal aromatic CH proton were then fitted to 1:1 binding model using BindFit v0.5 (http://app.supramolecular.org/bindfit/) to evaluate binding constants to anions.

[6] = Isothermal titration calorimetry (ITC), Cl^−; type: binding; conditions: 25° C.
Description: as §1, §2

[7] = Solubility; type: physicochemical; conditions: CHCl3, CH2Cl2, DMF, and DMSO
[8] = 1H NMR titration, binding of nitrate; conditions: 25° C.
Source text: as §4, §5, §6

[9] = Isothermal titration calorimetry (ITC), Br^−; type: binding; conditions: 25° C.
Description: as §1, §2

[10] = Isothermal titration calorimetry (ITC), IO4^−; type: binding; conditions: 25° C.
Description: as §1, §2

[11] = Ion transport with different MCl salts, HPTS assay; type: biochemical; conditions: POPC LUVs, 100 mM MCl, pH 7.0, 25° C.
Description: Inside vesicles: 10 mM HEPES, 100 mM MCI (M=Li, Na, K, Rb), 1 mM HPTS, pH 7.0. Outside vesicles: 10 mM HEPES, 100 mM MCI, pH 7.0. A base pulse (20 μL of 0.5 M NaOH) was applied to each vesicular solution at 50 s, followed by adding 20 μL of c5a in DMF at 100 s. For each group, the vesicles were lysed after 200 s by adding 0.1% Triton X-100 to obtain the maximum emission intensity for normalization. The emission intensities of the intravesicular HPTS at 510 nm, I405 and I450, corresponding to two excitation wavelengths (405 and 450 nm) were monitored simultaneously, based on which the normalized intensity ratios (I405/I450) of the two emision intensities were obtained.

[12] = Halide transport, lucigenin assay; type: biochemical; conditions: POPC LUVs, inside 100 mM NaNO3 + 1 mM lucigenin, outside 100 mM NaX, pH 7.0
Source text: Determination of halide transport with the lucigenin assay.

[13] = Isothermal titration calorimetry (ITC), NO3^−; type: binding; conditions: DMSO:CHCl3 (5:95, v/v), 25° C.
Description: as §1, §2

[14] = 1H NMR titration, binding of PF6^−; conditions: DMSO-d6:CDCl3 (15:85, v/v), 25° C., NMR titration (protons a and b)
Description: as §6

[15] = 1H NMR titration, binding of bromide; conditions: DMSO-d6:CDCl3 (15:85, v/v), 25° C., NMR titration (protons a and b)
Description: […] […] The titration data were collected by monitoring the changes in chemical shifts of the backbone amide protons and the inner aromatic protons with varying ratios of the anion guests. Job plots indicate that these linear oligoamides and their anion guests bind in a 1:1 stoichiometry.
as §6

CCCCCCCCOCC(C)(C)C(=O)Nc1ccc2cc1C(=O)Nc1ccc(NC(=O)C(C)(C)COCCCCCCCC)c(c1)C(=O)Nc1ccc(NC(=O)C(C)(C)COCCCCCCCC)c(c1)C(=O)Nc1ccc(NC(=O)C(C)(C)COCCCCCCCC)c(c1)C(=O)Nc1ccc(NC(=O)C(C)(C)COCCCCCCCC)c(c1)C(=O)N2 [c5a]
Association constant Ka, 1:1 complex with PF6^− ([1]; CH3CN:CHCl3 (5:95, v/v)): (1.23 ± 0.17) × 10^7 M^−1
Association constant Ka, 1:1 complex with PF6^− ([1]; DMSO:CHCl3 (5:95, v/v)): (2.80 ± 0.20) × 10^4 M^−1
Association constant Ka, 1:1 complex with I^− ([2]; CH3CN:CHCl3 (5:95, v/v), two-step competition ITC with Cl^− as the competitor): (6.67 ± 0.81) × 10^7 ^f M^−1
Association constant Ka, 1:1 complex with I^− ([2]; CH3CN:CHCl3 (5:95, v/v), ITC): (7.78 ± 4.26) × 10^7 M^−1
Association constant Ka, 1:1 complex with I^− ([2]; DMSO-d6:CDCl3 (15:85, v/v) column, ITC measurements (footnote d)): (1.18 ± 0.03) × 10^4 ^d M^−1
Association constant Ka, 1:1 complex with I^− ([2]; DMSO:CHCl3 (5:95, v/v), ITC): (1.83 ± 0.08) × 10^5 M^−1
Association constant Ka, 1:1 complex with I^− ([3]; single NMR titration (protons a and b)): (2.73 ± 0.17) × 10^4 M^−1
Association constant Ka, 1:1 complex with I^− ([3]; triplicate NMR titrations (footnote c)): (3.77 ± 0.25) × 10^4 ^c M^−1
Association constant Ka, 1:1 complex with Cl^− [4]: (4.31 ± 0.12) × 10^3 M^−1
Association constant Ka, 1:1 complex with BF4^− [5]: (4.73 ± 0.38) × 10^4 M^−1
Association constant Ka, 1:1 complex with Cl^− ([6]; CH3CN:CHCl3 (5:95, v/v)): (2.34 ± 0.24) × 10^6 M^−1
Association constant Ka, 1:1 complex with Cl^− ([6]; DMSO:CHCl3 (5:95, v/v)): (1.60 ± 0.10) × 10^4 M^−1
solubility in organic solvents [7]: soluble
Association constant Ka, 1:1 complex with NO3^− ([8]; CD3CN:CDCl3 (80:20, v/v), NMR titration): >10^6 M^−1
Association constant Ka, 1:1 complex with NO3^− ([8]; DMSO-d6:CDCl3 (15:85, v/v), NMR titration (protons a and b)): (1.57 ± 0.13) × 10^5 M^−1
Association constant Ka, 1:1 complex with Br^− ([9]; CH3CN:CHCl3 (5:95, v/v)): (1.79 ± 0.34) × 10^7 M^−1
Association constant Ka, 1:1 complex with Br^− ([9]; DMSO:CHCl3 (5:95, v/v)): (1.37 ± 0.04) × 10^4 M^−1
Association constant Ka, 1:1 complex with IO4^− ([10]; CH3CN:CHCl3 (5:95, v/v)): (2.54 ± 0.22) × 10^7 M^−1
Association constant Ka, 1:1 complex with IO4^− ([10]; DMSO:CHCl3 (5:95, v/v)): (1.72 ± 0.05) × 10^5 M^−1
transmembrane ion transport in the presence of LiCl, NaCl, KCl, or RbCl [11]: insignificant difference
sequence of halide transport efficiency (reduction of lucigenin fluorescence) [12]: Cl^−>Br^−>I^−
Association constant Ka, 1:1 complex with NO3^− [13]: (1.30 ± 0.10) × 10^6 M^−1
Association constant Ka, 1:1 complex with PF6^− [14]: not detected
Association constant Ka, 1:1 complex with Br^− [15]: (9.82 ± 1.08) × 10^3 M^−1
